Assay results as given in patent US8389523B2, “Substituted quinoxaline and an agrochemical composition thereof” (Kumiai Chemical Industry Co., Ltd., priority 2007, dated 2013).

What was measured:
Type in all cases: in vivo
Parameters in all cases: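 grade 0 to 5 of growth suppression where 5 is 90% or more and 0 below 10%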
[1] = tested on: Abutilon theophrasti medicus; assay: Herbicidal effects in upland field soil treatment (Test Example 2); conditions: 1000 g active ingredient per hectare, 21st day after treatment, criteria of Table 138
How it was run: (§1)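 Pre-emergence test: seeds sown in upland soil, then soil surface sprayed with diluted wettable powder at 1000 g active ingredient per hectare (1000 liters per hectare). Greenhouse growth; herbicidal effect scored on day 21 against set criteria.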

[2] = tested on: Amaranthus viridis L.; assay: as above; conditions: 1000 g active ingredient per hectare, 21st day after treatment, criteria of Table 138
How it was run: as §1

[3] = tested on: Echinochloa oryzicola Vasing; assay: Herbicidal effects in paddy field soil treatment (Test Example 1); conditions: paddy field soil treatment; 1000 g of the active ingredient per hectare; wettable powder added dropwise on water surface; 21st day after treatment
How it was run: (§2)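 Seeds sown in puddled paddy soil, waterlogged to 3 cm depth; next day a diluted wettable powder applied dropwise to the water surface at 1000 g active ingredient per hectare. Herbicidal effect scored 21 days after treatment in a greenhouse.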

[4] = tested on: Monochoria vaginalis (Burm. f.) Presl var. plantaginea (Roxb.) Solms-Laub.; assay: as above; conditions: paddy field soil treatment; 1000 g of the active ingredient per hectare; wettable powder added dropwise on water surface; 21st day after treatment
How it was run: as §2

[5] = tested on: Scirpus juncoides Roxb. var. ohwianus. T. Koyama; assay: as above; conditions: paddy field soil treatment; 1000 g of the active ingredient per hectare; wettable powder added dropwise on water surface; 21st day after treatment
How it was run: as §2

[6] = tested on: Abutilon theophrasti medicus; assay: Herbicidal effects in upland field foliar treatment (Test Example 3); conditions: criteria of Table 138; for herbicidal effects on Abutilon theophrasti medicus: 1000 g of the active ingredient per hectare, 14th day after the treatment, wettable powder; for herbicidal effect (index) on Abutilon theophrasti medicus: 1000 g active ingredient per hectare, 14th day after treatment
How it was run: (§3)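 Plants grown two weeks from seed in upland soil in a greenhouse, then sprayed overall with water-diluted wettable powder at 1000 L/ha delivering 1000 g active ingredient/ha. Herbicidal effect scored by rating criteria 14 days after treatment.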

[7] = tested on: Echinochloa crus-galli (L.) P. Beauv. var. crus-galli; assay: as above; conditions: criteria of Table 138; for herbicidal effects on Echinochloa crus-galli (L.) P. Beauv. var. crus-galli: 1000 g of the active ingredient per hectare, 14th day after the treatment, wettable powder; for herbicidal effect (index) on Echinochloa crus-galli (L.) P. Beauv. var. crus-galli: 1000 g active ingredient per hectare, 14th day after treatment
How it was run: as §3

[8] = tested on: Amaranthus viridis L.; assay: as above; conditions: criteria of Table 138; for herbicidal effects on Amaranthus viridis L.: 1000 g of the active ingredient per hectare, 14th day after the treatment, wettable powder; for herbicidal effect (index) on Amaranthus viridis L.: 1000 g active ingredient per hectare, 14th day after treatment
How it was run: as §3

Compound	herbicidal effect (index) on Abutilon theophrasti medicus [1]	herbicidal effect (index) on Amaranthus viridis L. [2]	Herbicidal effects index, Echinochloa oryzicola Vasing [3]	Herbicidal effects index, Monochoria vaginalis (Burm. f.) Presl var. plantaginea (Roxb.) Solms-Laub. [4]	Herbicidal effects index, Scirpus juncoides Roxb. var. ohwianus. T. Koyama [5]	herbicidal effects on Abutilon theophrasti medicus [6]	herbicidal effects on Echinochloa crus-galli (L.) P. Beauv. var. crus-galli [7]	herbicidal effects on Amaranthus viridis L. [8]	herbicidal effect (index) on Abutilon theophrasti medicus [6]	herbicidal effect (index) on Echinochloa crus-galli (L.) P. Beauv. var. crus-galli [7]	herbicidal effect (index) on Amaranthus viridis L. [8]
O=C1CCCC(O)=C1C(=O)c1nc2cccnc2n(Cc2cccc(C(F)(F)F)c2)c1=O [III-118]	5	5	5	5	5	5	5	5	–	–	–
O=C1CCCC(O)=C1C(=O)c1nc2ccccc2n(-c2nncs2)c1=O [I-269]	5	5	5	5	5	–	–	–	5	5	5
Cn1nc(-n2c(=O)c(C(=O)C3=C(O)CCCC3=O)nc3ccccc32)cc1C(F)(F)F [I-267]	5	5	5	5	5	–	–	–	5	5	5
CC1(C)CC(=O)C(C(=O)c2nc3cccnc3n(-c3cccc(C(F)(F)F)c3)c2=O)=C(O)C1 [IV-41]	5	5	5	5	5	5	5	5	–	–	–
Cc1cccc(-n2c(=O)c(C(=O)C3=C(O)CCCC3=O)nc3cccnc32)c1 [IV-20]	5	5	5	5	5	5	5	5	–	–	–
O=C1CCCC(O)=C1C(=O)c1nc2cccnc2n(-c2ccc(C(F)(F)F)cc2)c1=O [IV-44]	5	5	5	5	5	5	5	5	–	–	–
O=C1CCCC(O)=C1C(=O)c1nc2ccccc2n(-c2cccc(OC(F)(F)F)c2)c1=O [II-101]	5	5	5	5	5	5	5	5	–	–	–
C=CCn1c(=O)c(C(=O)C2=C(O)CCCC2=O)nc2ccccc21 [Compound I-30]	5	5	5	5	5	–	–	–	5	4	5
O=C1CCCC(O)=C1C(=O)c1nc2ccccc2n(-c2cccc3c2OCCO3)c1=O [II-226]	5	5	5	5	5	5	5	5	–	–	–
COc1ccc(-n2c(=O)c(C(=O)C3=C(O)CCCC3=O)nc3c(F)cc(F)cc32)cn1 [I-283]	5	5	4	5	5	–	–	–	5	4	5
Cc1ccc(-n2c(=O)c(C(=O)C3=C(O)CCCC3=O)nc3ccccc32)cc1 [II-21]	5	5	5	5	5	5	5	5	–	–	–
O=C1CCCC(O)=C1C(=O)c1nc2ccccc2n(-c2cccnc2)c1=O [I-185]	5	5	5	5	5	–	–	–	5	5	5
COc1ccc(-n2c(=O)c(C(=O)C3=C(O)CCCC3=O)nc3cc(F)c(OC)cc32)cc1 [II-263]	4	5	5	5	5	4	5	5	–	–	–
Cc1ccnc(-n2c(=O)c(C(=O)C3=C(O)CCCC3=O)nc3ccccc32)c1 [I-182]	5	5	5	5	5	–	–	–	5	5	5
O=C1CCCC(O)=C1C(=O)c1nc2cccnc2n(-c2cccc(C(F)(F)F)c2)c1=O [IV-39]	5	5	5	5	5	5	5	5	–	–	–
